Earlier results on 24 substances are cited in publication PMC4047818 (Biochemistry, 2014).

Read-outs that look alike come from different tables or passages of the source.

One series concerns insulin receptor. Further details: method as in 24 sources, one per row (each row's own in cited_ref): ref [58] = [58]; PMID 18048361; doi:10.1074/jbc.M709220200; Gauguin L.; Klaproth B.; Sajid W.; Andersen A. S.; McNeil K. A.; Forbes B. E.; De Meyts P. ( 2008 ) Structural basis for the lower affinity of the insulin-like growth factors for the insulin rec ||| ref [59] = [59]; PMID 9148904; doi:10.1074/jbc.272.20.12978; Kristensen C.; Kjeldsen T.; Wiberg F. C.; Schaffer L.; Hach M.; Havelund S.; Bass J.; Steiner D. F.; Andersen A. S. ( 1997 ) Alanine scanning mutagenesis of insulin . J. Biol. Chem. 272 , 1297 ||| ref [33] = [33]; PMID 17316105; doi:10.1089/dia.2006.0035; Becker R. H. A. ( 2007 ) Insulin glulisine complementing basal insulins: A review of structure and activity . Diabetes Technol. Ther. 9 , 109 – 121 . 17316105 10.1089/dia.2006.0035 ||| ref [60],[61] = [60]; PMID 3541911; doi:10.1042/bj2380345; Bajaj M.; Blundell T. L.; Horuk R.; Pitts J. E.; Wood S. P.; Gowan L. K.; Schwabe C.; Wollmer A.; Gliemann J.; Gammeltoft S. ( 1986 ) Coypu Insulin: Primary Structure, Conformation and Biolog || [61]; PMID 11445250; doi:10.1016/s0196-9781(01)00423-5; Conlon J. M. ( 2001 ) Evolution of the insulin molecule: Insights into structure-activity and phylogenetic relationships . Peptides 22 , 1183 – 1193 . 11445250 10.1016/s0196-9781(01)00423-5 ||| ref [66] = [66]; PMID 2268358; doi:10.1016/s0006-291x(05)80882-4; Burke G. T.; Hu S. Q.; Ohta N.; Schwartz G. P.; Zong L.; Katsoyannis P. G. ( 1990 ) Superactive insulins . Biochem. Biophys. Res. Commun. 173 , 982 – 987 . 2268358 10.1016/s0006-291x(05)80882-4 ||| ... The note with it: for relative affinity: insulin = 100.

In series [1] the target is insulin receptor (Homo sapiens) (UniProt P06213). Put plainly: radioligand binding.
Chain of UniProt P06213 (P06213 763-1382): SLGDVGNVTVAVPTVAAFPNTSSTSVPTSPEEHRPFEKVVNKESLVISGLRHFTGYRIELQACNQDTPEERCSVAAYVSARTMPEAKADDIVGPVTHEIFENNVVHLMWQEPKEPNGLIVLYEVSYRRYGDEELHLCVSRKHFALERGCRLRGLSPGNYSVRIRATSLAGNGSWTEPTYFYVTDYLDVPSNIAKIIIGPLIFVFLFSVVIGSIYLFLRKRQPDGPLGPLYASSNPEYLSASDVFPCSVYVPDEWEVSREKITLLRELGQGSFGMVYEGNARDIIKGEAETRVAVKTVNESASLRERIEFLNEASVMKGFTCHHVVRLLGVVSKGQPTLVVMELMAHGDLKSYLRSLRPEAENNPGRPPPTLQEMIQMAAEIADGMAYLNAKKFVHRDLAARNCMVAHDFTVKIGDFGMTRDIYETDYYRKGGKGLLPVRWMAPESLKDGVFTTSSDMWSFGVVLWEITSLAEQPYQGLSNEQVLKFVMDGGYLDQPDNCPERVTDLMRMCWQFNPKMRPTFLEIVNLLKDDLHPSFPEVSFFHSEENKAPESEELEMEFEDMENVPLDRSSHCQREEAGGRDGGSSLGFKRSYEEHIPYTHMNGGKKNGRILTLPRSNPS

Chain of insulin (P01308 90-110): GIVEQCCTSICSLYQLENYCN

Take “[AlaB1]winsulin: literature insulin analogue, Ala at B1”: in the series with insulin receptor (ref (6)), the relative affinity is reported as 79%.
For the substance “[ProB3]-insulin: literature insulin analogue, Pro at B3”, in the series with insulin receptor (ref (7)), the relative affinity is given as 54%. Also, in the series on insulin receptor (relative to HI, ref [58]), the binding affinity is reported as 54%.
With “[AlaB2]winsulin: literature insulin analogue, Ala at B2”, in the series with insulin receptor (ref (6)), the relative affinity was 110%.
For the substance “[AsnB5]winsulin: literature insulin analogue, Asn at B5”, the relative affinity in the series on insulin receptor (ref (12)) was 46%.
On to “[SerB8,desB30]winsulin: literature insulin analogue, Ser at B8, desB30”, for which the relative affinity in the series with insulin receptor (ref (18)) is 23%. The “IR affinity relative to HI” value with insulin receptor (published analogues, ref Table S5 of the Supporting Information) is on record as 23%.
For the substance “[Cys(B4–B10),desB30]-insulin: literature insulin analogue with an additional B4–B10 disulfide bond, desB30”, the relative affinity in the series with insulin receptor (ref (8)) was 132%. Besides, the affinity in the series on insulin receptor (relative to HI, ref [31]) is listed as 130%.
As for “[GlyB6]winsulin: literature insulin analogue, Gly at B6”, the relative affinity in the series with insulin receptor (ref (14)) is listed as 0.052%.
Turning to “[MetB6]winsulin: literature insulin analogue, Met at B6”, the relative affinity in the series with insulin receptor (ref (14)) is given as 15%.
Take “[ThrB8,desB30]winsulin: literature insulin analogue, Thr at B8, desB30”: in the series with insulin receptor (ref (18)), the relative affinity was less than 0.2%.
Regarding “insulin glulisine: [LysB3,GluB29]-insulin analogue”, in the series with insulin receptor (relative to wild type, ref [33]), the affinity entry is “wild-type-like affinity”.
insulin (from UniProt P01308): the Kd – broadly, the concentration at which binding is half-saturated – in series [1] was 300 pM.
As to “[AlaB5]-insulin: literature insulin analogue, Ala at B5”, the relative affinity in the series on insulin receptor (ref (9)) is 31%.
Consider “[AspB5]-insulin: literature insulin analogue, Asp at B5”, for which, in the series on insulin receptor (ref (12)), the relative affinity is given as 0.4%. The binding affinity in the series with insulin receptor (relative to HI, ref [66]) is given as 0.4%.
As to “[AlaB6]winsulin: literature insulin analogue, Ala at B6”, the relative affinity in the series on insulin receptor (ref (6, 14)) is recorded as 1.4%.
As for “[PheB6]winsulin: literature insulin analogue, Phe at B6”, the relative affinity in the series on insulin receptor (ref (14)) is given as 10%.
On to “DKPwinsulin: monomeric insulin analogue containing three substitutions in the B-chain (AspB10, LysB28, ProB29)”, for which the relative affinity in the series with insulin receptor (ref (15)) was 160%.
With “[AlaB3]-insulin: literature insulin analogue, Ala at B3”, in the series with insulin receptor (ref (6)), the relative affinity was 134%. Besides, the binding affinity with insulin receptor (relative to HI, ref [59]) is 134%.
Take “[ArgB5]winsulin: insulin with naturally occurring ArgB5 mutation”: the relative affinity in the series on insulin receptor (ref (10)) is reported as 40%.
Regarding “[AlaB4]winsulin: literature insulin analogue, Ala at B4”, the relative affinity in the series with insulin receptor (ref (6)) is given as 54%.
“[ValB6]winsulin: literature insulin analogue, Val at B6”: the relative affinity in the series with insulin receptor (ref (14)) is 3.3%.
For the substance “[LeuB8,desB30]winsulin: literature insulin analogue, Leu at B8, desB30”, the relative affinity in the series with insulin receptor (ref (18)) is listed as less than 0.2%.
As to “[AlaB5]DKPwinsulin: DKP-insulin analogue, Ala at B5”, in the series on insulin receptor (ref (13)), the relative affinity is reported as 129%.
As for “[SerB3]-insulin: literature insulin analogue, Ser at B3”, the relative affinity in the series with insulin receptor (ref (7)) was 97%. Besides, in the series on insulin receptor (relative to HI, ref [58]), the binding affinity is on record as 97%.
“[SerB8]DKPwinsulin: DKP-insulin analogue, Ser at B8”: in the series on insulin receptor (ref (15, 17)), the relative affinity is 90%.
